The values that follow come from paper PMC6271870, “Study on the Synthesis, Biological Activity and Spectroscopy of Naphthalimide-Diamine Conjugates” (Molecules, 2014).

SMILES strings stand for the structures. Where only a bound is given, the exact number is not on record here.

In one data set the test system is human leukemia K562. In words: MTT assay, K562 cells. The following applies: 48 h, aminoguanidine present, mean ± SD of three determinations, max 50 µM tested. It counts as cell-based. How it is done: The cytotoxicities of the novel conjugates were assessed in vitro by the MTT assay in the presence of aminoguanidine (an inhibitor of amine oxidase) against three cell lines, human leukemia K562, cancer of colon HCT116 and human normal hepatocyte QSG-7701 [34]. […] Thus, compound 7f was selected for further investigation. Cell lines, K562, 7721 and HCT116 were obtained from American Type Culture Collection (ATCC, Shanghai, China). Cells were cultured in RPMI1640, supplemented with 10% heat-inactivated fetal calf serum (FCS), antibiotics (penicillin, 100 units/mL; streptomycin sulfate, 100 μg/mL) at 37 °C, in an atmosphere of 95% air and 5% CO2 under humidified conditions. Aminoguanidine (1 mM) was added as an inhibitor of amine oxidase derived from FCS and had no effect on the various parameters of the cell measured in this study. Chemosensitivity was assessed using the 3-(4,5-dimethylthiazol-2-yl)-2,5-diphenyltetrazolium bromide (MTT) assay. […] After incubation for 4 h at 37 °C, the purple formazan crystals (i.e., a reduced form of MTT) generated from viable cells were dissolved by adding 100 μL 10% sodium dodecyl sulphate (SDS) in each well. The absorbance of each well was then read at 570 nm.
(Tetrazolium assays rely on reduction of a dye to a coloured formazan, in cell work by metabolically active cells.)

In data set [1] the test system is human normal hepatocyte QSG-7701. In words: MTT assay, QSG-7701 cells. The note with it: QSG7701, aminoguanidine present, mean ± SD of three determinations, max 50 µM tested. In kind it is cell-based. How it is done: (§1) The cytotoxicities of the novel conjugates were assessed in vitro by the MTT assay in the presence of aminoguanidine (an inhibitor of amine oxidase) against three cell lines, human leukemia K562, cancer of colon HCT116 and human normal hepatocyte QSG-7701 [34]. […] Thus, compound 7f was selected for further investigation. Cell lines, K562, 7721 and HCT116 were obtained from American Type Culture Collection (ATCC, Shanghai, China). Cells were cultured in RPMI1640, supplemented with 10% heat-inactivated fetal calf serum (FCS), antibiotics (penicillin, 100 units/mL; streptomycin sulfate, 100 μg/mL) at 37 °C, in an atmosphere of 95% air and 5% CO2 under humidified conditions. Aminoguanidine (1 mM) was added as an inhibitor of amine oxidase derived from FCS and had no effect on the various parameters of the cell measured in this study. In addition, exponentially growing HCT116 or 7721 cells were seeded into 96-well plates at 5000 cells/well and allowed to attach overnight, and then 100 μL of MTT (1 mg/mL) was added. After incubation for 4 h at 37 °C, the MTT solution was removed and the remaining formazan crystals were dissolved with 150 μL DMSO in each well. The absorbance of each well was then read at 570 nm.

Another data set concerns cancer of colon HCT116. Kind of data set: MTT assay, HCT116 cells. It counts as cell-based. The note with it: Homo sapiens, HCT-116, aminoguanidine present, mean ± SD of three determinations, max 50 µM tested. How it is done: as §1

Take `Cl.Cl.NCCNCCCN1C(=O)c2cccc3cccc(c23)C1=O` [Compound 7a, 2-[3-(2-Aminoethylamino)propyl]1H-benz-[de]isoquinoline-1,3(2H)-dione dihydrochloride]: the melting point (in general, the temperature, or range, at which the solid turns liquid) lay within 233.4 to 235.1 °C. The IC50 (usually the point on the concentration scale where inhibition reaches its midpoint) with human leukemia K562 stood at 48.8 ± 3.93 µM. Besides, the IC50 in data set [1] is more than 50 µM. The IC50 in the data set with cancer of colon HCT116 was found to be 19.3 ± 4.39 µM.

For `Cl.Cl.NCCNCCCCN1C(=O)c2cccc3cccc(c23)C1=O` [Compound 7b, 2-[4-(2-Aminoethylamino)butyl]1H-benz-[de]isoquinoline-1,3(2H)-dione dihydrochloride], the melting point lay in the range of 243.1 to 244.1 °C. In addition, 25.6 ± 3.74 µM corresponded to half-maximal inhibition in the data set with human leukemia K562 (IC50). The same molecule registered an IC50 in data set [1] of 33.9 ± 4.32 µM. This molecule showed an IC50 with cancer of colon HCT116 of 13.9 ± 2.68 µM.

With `Cl.Cl.NCCCCCCNCCCN1C(=O)c2cccc3cccc(c23)C1=O` [Compound 7i, 2-[3-(6-Aminohexylamino)propyl]1H-benz-[de]isoquinoline-1,3(2H)-dione dihydrochloride], the melting point lay in the range of 230.6 to 231.8 °C. Also, in the data set with human leukemia K562, it took 41.4 ± 1.76 µM to reach half-maximal inhibition (IC50). The same molecule yielded an IC50 in data set [1] of more than 50 µM. Besides, half-maximal inhibition with cancer of colon HCT116 (IC50) was put at 11 ± 1.71 µM.

For `Cl.Cl.NCCCCNCCCCCN1C(=O)c2cccc3cccc(c23)C1=O` [Compound 7h, 2-[5-(4-Aminobutylamino)pentyl]1H-benz-[de]isoquinoline-1,3(2H)-dione dihydrochloride], the melting point fell in the range of 236.6 to 237.9 °C. In the data set with human leukemia K562, this molecule yielded a concentration for half-maximal inhibition (IC50) of 15.9 ± 1.53 µM. This molecule also returned an IC50 in data set [1] of 18.8 ± 4.94 µM. The molecule also had an IC50 with cancer of colon HCT116 of 16.2 ± 4.28 µM.

Regarding `CN(C)CCN1C(=O)c2cccc3cc(N)cc(c23)C1=O` [Amonafide, amonafide, reference compound], the IC50 is 10.1 ± 2.59 µM with human leukemia K562, 20.3 ± 2.43 µM in data set [1] and 6.86 ± 1.89 µM with cancer of colon HCT116.

`Cl.Cl.NCCCCCCNCCCCN1C(=O)c2cccc3cccc(c23)C1=O` [Compound 7j, 2-[4-(6-Aminohexylamino)butyl]1H-benz-[de]isoquinoline-1,3(2H)-dione dihydrochloride] showed a melting point of 235.9 to 237.2 °C. For the same molecule, half-maximal inhibition in the data set on human leukemia K562 (IC50) required 12.6 ± 0.81 µM. In addition, half-maximal inhibition in data set [1] (IC50) required 13.1 ± 3.94 µM. The molecule further yielded an IC50 in the data set on cancer of colon HCT116 of 16.4 ± 1.75 µM.

In the case of `Cl.Cl.NCCCCCCNCCCCCN1C(=O)c2cccc3cccc(c23)C1=O` [Compound 7k, 2-[5-(6-Aminohexylamino)pentyl]1H-benz-[de]isoquinoline-1,3(2H)-dione dihydrochloride], the melting point was in the range of 229.1 to 230.3 °C. Moreover, in the data set with human leukemia K562, the IC50 was 15.9 ± 1.83 µM. Further, the IC50 in data set [1] was 14.7 ± 3.91 µM. In the data set on cancer of colon HCT116, this molecule returned an IC50 of 9.95 ± 1.81 µM.

Molecule `Cl.Cl.NCCCCNCCCCN1C(=O)c2cccc3cccc(c23)C1=O` [Compound 7g, 2-[4-(4-Aminobutylamino)butyl]1H-benz-[de]isoquinoline-1,3(2H)-dione dihydrochloride] came in with a melting point of 226.7 to 228.3 °C. In addition, inhibition with human leukemia K562 was half-maximal at 14 ± 3.32 µM (IC50). The same molecule had an IC50 in data set [1] of 12 ± 4.07 µM. For the same molecule, the IC50 in the data set on cancer of colon HCT116 turned out to be 13.9 ± 2.54 µM.

For the molecule `Cl.Cl.NCCNCCCCCN1C(=O)c2cccc3cccc(c23)C1=O` [Compound 7c, 2-[5-(2-Aminoethylamino)pentyl]1H-benz-[de]isoquinoline-1,3(2H)-dione dihydrochloride], the melting point lay in the range of 233.8 to 235.1 °C. In addition, 38.8 ± 1.76 µM corresponded to half-maximal inhibition in the data set with human leukemia K562 (IC50). In data set [1], this molecule had an IC50 of more than 50 µM. The midpoint of inhibition in the data set with cancer of colon HCT116, the IC50, lay at 9.89 ± 1.11 µM.

The molecule `Cl.Cl.NCCCNCCCN1C(=O)c2cccc3cccc(c23)C1=O` [Compound 7d, 2-[3-(3-Aminopropylamino)propyl]1H-benz-[de]isoquinoline-1,3(2H)-dione dihydrochloride] came in with a melting point of 233.1 to 234.2 °C. In addition, the IC50 in the data set with human leukemia K562 is 19.7 ± 7.23 µM. This molecule also registered an IC50 in data set [1] of 8.04 ± 3.35 µM. Moreover, the IC50 in the data set on cancer of colon HCT116 came to 8.95 ± 3.87 µM.

As to `Cl.Cl.NCCCNCCCCCN1C(=O)c2cccc3cccc(c23)C1=O` [Compound 7e, 2-[5-(3-Aminopropylamino)pentyl]1H-benz-[de]isoquinoline-1,3(2H)-dione dihydrochloride], the melting point was in the range of 238.6 to 239.8 °C. The molecule further returned an IC50 in the data set with human leukemia K562 of 22.4 ± 1.21 µM. In data set [1], this molecule gave an IC50 of 22.2 ± 0.67 µM. For the same molecule, the IC50 with cancer of colon HCT116 was 9.52 ± 3.31 µM.
